Measured values taken from patent US10251838B2, “Stereospecific lipids for locoregional therapy with long-term circulating stimuli-sensitive nanocarrier systems” (THERMOSOME GmbH, priority 2013, dated 2019).

Assays:
[1] = Phase transition temperatures (TM) of phospholipids; assay type: physicochemical; settings: for TM (phase transition temperature): phosphatidylcholine/phosphatidyldiglycerol/phosphatidyltriglycerol/phosphatidyltetraglycerol with the given fatty acid pattern; for main (phase) transition temperature: pure lipid
Protocol: By selecting a phosphatidylcholine having a suitable main transition temperature, the stimuli-sensitive nanocarrier system, in particular the thermosensitive liposome, can be customised. Table 1 gives main transition temperatures (TM) of phosphatidylcholines whose main transition temperatures are in the range of from 0 to 80° C.
The fatty acid chains and their distribution over positions 1 and 2 of the glycerol molecule dominate the physical properties of the phospholipids. The phase transition temperature is independent of whether the phospholipid is the phosphatidylcholine, the phosphatidyldiglycerol, the phosphatidyltriglycerol or the phosphatidyltetraglycerol.

[2] = Stability and circulation of liposomes in serum / bloodstream (animal experiments); assay type: in vivo; settings: lipid alone in liposomes
Protocol: By using phosphatidyloligoglycerols, it has been possible to prepare thermosensitive liposomes having a prolonged blood circulation time (WO 2002/064116 and WO 2004/026282). […] The majority of the liposomes remain in the blood circulation over a period of 2 hours and are therefore available for heat-controlled release of the active ingredient. Owing to the rapid release-kinetics of these liposomes with heat-induced release of the active ingredient within a few seconds, preferably <15 seconds, more preferably <10 seconds, a previously enclosed active ingredient can be released immediately by targeted heating of the liposomes to temperatures >39° C., preferably 40-42° C.
The main transition temperature for (1,2-dipalmitoyl)-phosphatidylcholine is approximately 41° C. The purely physical requirements for clinical use in liposomes can accordingly be fulfilled by this phosphatidylcholine. However, the serum stability in the bloodstream of humans and animals that is required for clinical applications is lacking. (1,2-Dipalmitoyl)phosphatidylcholine alone is therefore not sufficient to achieve the therapeutic aims. […]
Enclosed active ingredients are only released when the temperature is increased locally to about 42° C. […]

[3] = tissue depth of 2000-3000 μm; cited from earlier work

Row | SMILES | TM (phase transition temperature) [1] [°C] | further results
1 | CCCCCCCCCCCCCCCCCCCC(=O)OC[C@H](COP(=O)([O-])OCC[N+](C)(C)C)OC(=O)CCCCCCCCCCCCCCCCCCC [1,2-diarachinoyl-, 1,2-diarachinoylglycero-3-phosphocholine] | 66 | –
2 | CCCCCCCCCCCCCCCCCCCCCC(=O)OCC(COP(=O)([O-])OCC[N+](C)(C)C)OC(=O)CCCCCCCCCCCCCCCCCCCCC (stereo not drawn) [1,2-dibehenoyl-, 1,2-dibehenoylglycero-3-phosphocholine] | 75 | –
3 | CCCCCCCCCCCCCCCCCCCCCCCC(=O)OCC(COP(=O)([O-])OCC[N+](C)(C)C)OC(=O)CCCCCCCCCCCCCCCCCCCCCCC (stereo not drawn) [1,2-dilignoceroyl-, 1,2-dilignoceroylglycero-3-phosphocholine] | 80 | –
4 | CCCCCCCCCCCCCC(=O)OCC(COP(=O)([O-])OCC[N+](C)(C)C)OC(=O)CCCCCCCCCCCCC (stereo not drawn) [1,2-dimyristoyl-, 1,2-dimyristoylglycero-3-phosphocholine] | 23 | main (phase) transition temperature [1]: 23 °C
5 | CCCCCCCCCCCCCCCC(=O)OCC(COP(=O)([O-])OCC[N+](C)(C)C)OC(=O)CCCCCCCCCCCCCCC (stereo not drawn) [1,2-dipalmitoyl-, 1,2-dipalmitoylglycero-3-phosphocholine] | 41 | main (phase) transition temperature ([1]; listed as (1,2-dipalmitoyl)-phosphatidylcholine): approximately 41 °C; main (phase) transition temperature ([1]; listed as dipalmitoyl-phosphatidylcholine): 41 °C; serum stability in the bloodstream of humans and animals [2]: lacking
6 | CCCCCCCCCCCCCCCCCC(=O)OCC(COP(=O)([O-])OCC[N+](C)(C)C)OC(=O)CCCCCCCCCCCCCCCCC (stereo not drawn) [1,2-distearoyl-, 1,2-distearoylglycero-3-phosphocholine] | 56 | main (phase) transition temperature [1]: 56 °C
7 | CCCCCCCCCCCCCC(=O)OCC(COC(=O)CCCCCCCCCCCCC)OP(=O)([O-])OCC[N+](C)(C)C [1,3-dimyristoyl-, 1,3-dimyristoylglycero-2-phosphocholine] | 19 | –
8 | CCCCCCCCCCCCCCCC(=O)OCC(COC(=O)CCCCCCCCCCCCCCC)OP(=O)([O-])OCC[N+](C)(C)C [1,3-dipalmitoyl-, 1,3-palmitoylglycero-2-phosphocholine] | 39 | –
9 | CCCCCCCCCCCCCCCCCC(=O)OCC(COC(=O)CCCCCCCCCCCCCCCCC)OP(=O)([O-])OCC[N+](C)(C)C [1,3-distearoyl-, 1,3-distearoylglycero-2-phosphocholine] | 53 | –
10 | CCCCCCCC/C=C\CCCCCCCC(=O)OC(COC(=O)CCCCCCCCCCCCCCCCCCCCC)COP(=O)([O-])OCC[N+](C)(C)C (stereo not drawn) [1-behenoyl-2-oleoyl-, 1-behenoyl-2-oleoylglycero-3-phosphocholine] | 14 | –
11 | CCCCCCCCCCCCCCCC(=O)OC(COC(=O)CCCCCCCCCCCCC)COP(=O)([O-])OCC[N+](C)(C)C (stereo not drawn) [1-myristoyl-2-palmitoyl-, 1-myristoyl-2-palmitoylglycero-3-phosphocholine] | 37 | –
12 | CCCCCCCCCCCCCCCCCC(=O)OC(COC(=O)CCCCCCCCCCCCC)COP(=O)([O-])OCC[N+](C)(C)C (stereo not drawn) [1-myristoyl-2-stearoyl-, 1-myristoyl-2-stearoylglycero-3-phosphocholine] | 42 | –
13 | CCCCCCCCCCCCCCCC(=O)OCC(COP(=O)([O-])OCC[N+](C)(C)C)OC(=O)CCCCCCCCCCC (stereo not drawn) [1-palmitoyl-2-lauroyl-, 1-palmitoyl-2-lauroylglycero-3-phosphocholine] | 11 | –
14 | CCCCCCCCCCCCCCCC(=O)OCC(COP(=O)([O-])OCC[N+](C)(C)C)OC(=O)CCCCCCCCCCCCC (stereo not drawn) [1-palmitoyl-2-myristoyl-, 1-palmitoyl-2-myristoylglycero-3-phosphocholine] | 27 | –
15 | CCCCCCCC/C=C\CCCCCCCC(=O)OC(COC(=O)CCCCCCCCCCCCCCC)COP(=O)([O-])OCC[N+](C)(C)C (stereo not drawn) [1-palmitoyl-2-oleoyl-, 1-palmitoyl-2-oleoylglycero-3-phosphocholine] | 5 | –
16 | CCCCCCCCCCCCCCCCCC(=O)OC(COC(=O)CCCCCCCCCCCCCCC)COP(=O)([O-])OCC[N+](C)(C)C (stereo not drawn) [1-palmitoyl-2-stearoyl-, 1-palmitoyl-2-stearoylglycero-3-phosphocholine] | 52 | –
17 | CCCCCCCCCCCCCCCCCC(=O)OCC(COP(=O)([O-])OCC[N+](C)(C)C)OC(=O)CCCCCCCCCCC (stereo not drawn) [1-stearoyl-2-lauroyl-, 1-stearoyl-2-lauroylglycero-3-phosphocholine] | 17 | –
18 | CCCCCCCCCCCCCCCCCC(=O)OCC(COP(=O)([O-])OCC[N+](C)(C)C)OC(=O)CCCCCCCCCCCCC (stereo not drawn) [1-stearoyl-2-myristoyl-, 1-stearoyl-2-myristoylglycero-3-phosphocholine] | 33 | –
19 | CCCCCCCC/C=C\CCCCCCCC(=O)O[C@H](COC(=O)CCCCCCCCCCCCCCCCC)COP(=O)([O-])OCC[N+](C)(C)C [1-stearoyl-2-oleoyl-, 1-stearoyl-2-oleoyl-3-phosphocholine] | 7 | –
20 | CCCCCCCCCCCCCCCCCC(=O)OCC(COP(=O)([O-])OCC[N+](C)(C)C)OC(=O)CCCCCCCCCCCCCCC (stereo not drawn) [1-stearoyl-2-palmitoyl-, 1-stearoyl-2-palmitoylglycero-3-phosphocholine] | 48 | –
21 | CCCCCCCCCCCCCCCCCC(=O)OCC(COC(=O)CCCCCCCCCCCCC)OP(=O)([O-])OCC[N+](C)(C)C (stereo not drawn) [1-stearoyl-3-myristoyl-, 1-stearoyl-3-myristoylglycero-2-phosphocholine] | 46 | –
22 | CO[C@@]12[C@H](COC(N)=O)C3=C(C(=O)C(C)=C(N)C3=O)N1C[C@@H]1N[C@@H]12 [mitomycin C] | – | dogs in which no further mitomycin C was detectable [3]: 18/24
